Experimental data reported in PubChem BioAssay (NCI).
Values joined by “and” are separate entries in the source; they are usually repeats but may differ in a detail not shown here. Equal values may be shown once.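 Tested at 5 concentrations; 48 h exposure; 96-well plates; endpoints linearly interpolated, else capped at highest concentration. The concentration for 50% growth inhibition is given as GI50. TGI: total growth inhibition.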

Columns and labels:
Test in all cases: inhibition of tumour cell growth, NCI panel, 48 h
K-562 leukemia = system: K-562 leukemia
ACHN renal = system: ACHN renal
OVCAR-3 ovarian = system: OVCAR-3 ovarian
MOLT-4 leukemia = system: MOLT-4 leukemia
HCC-2998 colon = system: HCC-2998 colon
COLO 205 colon = system: COLO 205 colon
SK-MEL-28 melanoma = system: SK-MEL-28 melanoma
SK-MEL-2 melanoma = system: SK-MEL-2 melanoma
TK-10 renal = system: TK-10 renal
SR leukemia = system: SR leukemia

SMILES	TGI (K-562 leukemia)	TGI (ACHN renal)	TGI (OVCAR-3 ovarian)	TGI (MOLT-4 leukemia)	TGI (HCC-2998 colon)	TGI (COLO 205 colon)	TGI (SK-MEL-28 melanoma)	TGI (SK-MEL-2 melanoma)	TGI (TK-10 renal)	TGI (SR leukemia)	GI50 (K-562 leukemia)	GI50 (ACHN renal)	GI50 (SR leukemia)	GI50 (OVCAR-3 ovarian)	GI50 (MOLT-4 leukemia)	GI50 (SK-MEL-2 melanoma)	GI50 (TK-10 renal)	GI50 (HCC-2998 colon)	GI50 (COLO 205 colon)	GI50 (SK-MEL-28 melanoma)
O=C1CSc2cc([N+](=O)[O-])ccc2N1	> 100 µM	> 100 µM	> 100 µM	> 100 µM	> 100 µM	> 100 µM	> 100 µM	> 100 µM	> 100 µM											
CCN(CC)CC(=N)N(CC)c1ccccc1	> 100 µM	> 100 µM	> 100 µM	> 100 µM	> 100 µM	> 100 µM	> 100 µM	> 100 µM	> 100 µM											
O=C(/C=C\c1ccccc1)N1CCc2ccccc2C1	45.8 µM	> 100 µM			> 100 µM	57.1 µM	> 100 µM	91.3 µM	> 100 µM	69.1 µM										
O=C(O)/C(=C\c1ccncc1)c1cccc2ccccc12	> 100 µM		> 100 µM	> 100 µM		> 100 µM	> 100 µM	> 100 µM	> 100 µM	> 100 µM										
C/C(=N\NC(=S)N(C)C)c1ccccn1	> 41.3 µM	1.74 µM		2.12 µM	15 µM		20.6 µM	27.2 µM	10.7 µM		0.104 nM	1.51 nM	1.32 nM	0.000474 µM	0.297 nM	0.624 µM	2.79 nM			
N.N.O=P([O-])([O-])C1(P(=O)([O-])[O-])CCCCCN1.[Pt+2]	> 100 µM	> 100 µM	> 100 µM	> 100 µM	> 100 µM	> 100 µM	> 100 µM	> 100 µM	> 100 µM		> 100000 nM	> 100000 nM		> 100 µM	> 100000 nM	> 100 µM	> 100000 nM	> 100 µM	> 100 µM	> 100 µM
Cn1c(=O)c2/c(n(C)c1=O)=N\C=c1\c(=O)n(C)c(=O)n(C)\c1=N\C=2	> 100 µM	> 100 µM	> 100 µM	> 100 µM	> 100 µM	> 100 µM	> 100 µM	> 100 µM	> 100 µM											
Cc1ccc(C(=O)CC2=Nc3nnc(CCCCCCCc4nnc5n4C(=O)C(CC(=O)c4ccc(C)cc4)=N5)n3C2=O)cc1	> 100 µM	> 100 µM	> 100 µM	> 100 µM	> 100 µM	> 100 µM	> 100 µM		> 100 µM	> 100 µM										
O=C(NC(=O)c1ccccc1[N+](=O)[O-])Nc1ccc(Oc2ncc(Cl)cn2)c(C(F)(F)F)c1	> 100 µM	32.1 µM	0.838 µM	> 69.1 µM	0.0775 µM	0.109 µM	> 4.64 µM		> 100 µM	> 100 µM										
O=C(/C=C\c1cccc2ccccc12)c1cccc2ccccc12	18.6 µM	24.1 µM	25.3 µM	8.08 µM and 20.5 µM	28.4 µM		20.5 µM	36.8 µM		> 100 µM	2820 nM		3950 nM	12.5 µM	2490 nM					
CC(=O)[CH-]C(=O)c1ccccc1.CC(=O)[CH-]C(=O)c1ccccc1.CC[O-].O=C1c2ccccc2C(=O)c2c1ccc(O)c2[O-].[Ti+4]	> 100 µM	> 100 µM	> 100 µM	61.2 µM	> 100 µM	> 100 µM	> 100 µM	> 100 µM												
COc1ccc(Cn2cc3c(c2-c2cc(OC)c(OC)c(OC)c2)CCc2cnoc2-3)cc1	> 32.3 µM	> 100 µM	0.484 µM	> 100 µM	> 100 µM		> 100 µM	> 100 µM	> 100 µM	1.42 µM	111 nM	849 nM	175 nM	0.189 µM	468 nM	3.24 µM	842 nM	0.557 µM		0.517 µM
COc1cc(NC(=O)C2=C(N3CCOCC3)/C(=C/c3ccc(Cl)cc3)CC2)cc(OC)c1OC	> 100 µM	61.8 µM	> 100 µM	> 100 µM	> 100 µM	> 100 µM	> 100 µM	> 100 µM	86.5 µM		> 100000 nM	16900 nM		24.9 µM	> 100000 nM	66.8 µM	27900 nM	38.9 µM	> 100 µM	> 100 µM
Cc1cccc2c(O)cc(=O)oc12	> 100 µM	> 100 µM	> 100 µM	> 100 µM			> 100 µM		> 100 µM	> 100 µM										
